Assays:
SCF activated c-kit wild = molecular target: T1, SCF activated c-kit wild (Mus musculus, UniProt P05532); experiment: Proliferation test, Ba/F3 Kit cells with SCF; type: cell-based, murine; conditions: doses inferior to toxicity level (<10 μM)
T1 construct: expressed in transfected cells; host or cells: Ba/F3 (murine, IL-3 dependent)
Procedure: (§1) First step: cellular proliferation to select molecules which are able to slowdown or stop cellular growth induced by c-kit activation. Here, SCF activated c-kit is used. Then, the effect of these molecules is analyzed by biochemistry techniques (immuno precipitations and western-blots), so that to determine if the inhibitor acts directly on the receptor c-kit or on other proteins, which are mediators of Kit signals. In a second step, a subset of molecules identified is selected in a cellular test on IL-3 dependant cells cultured in presence of IL-3. molecules that are not toxic are identified as potent specific c-kit inhibitors for a use in therapy.
(§2) Two types of cell lines carrying wild or mutated forms of c-kit are available lines derived from mastocytomes and the Ba/F3 cell model (cells depending on IL-3). In the Ba/F3 cells, the expression of c-kit removes the dependence vis-a-vis IL-3. Consequently, cDNA of wild or mutated murine c-kit has been introduced and these cells proliferate either in presence of SCF in case of c-kit wild or in absence of any growth factor in case of activated mutant c-kit.
Preparation of cell lines • Ba/F3-Kit: Ba/F3 cells in which Kit gene, mutated or wild, has been introduced. They proliferate either in presence of Kit ligand (SCF) or in presence of IL-3. […]

[1] = tested on: c-kit carrying one of the juxtamembrane mutations (Δ27); experiment: Proliferation test, Ba/F3 Δ27 cells; type: cell-based, murine; conditions: doses inferior to toxicity level (<10 μM)
Source text: as §2
(§3) Juxtamembrane Mutations • Ba/F3-KitΔ27 (transfected juxtamembrane mutation—identified at the Laboratory) • Ba/F3-KitG559 (transfected juxtamembrane mutation) • FMA3 (deletion 7aa. juxtamembrane identified in a mouse mastocytome)
Cells expressing c-kit carrying one of the juxtamembrane mutations (Δ27) were also used as a control.
(§4) Table set up according to CPM (Counts Per Minutes) percentage obtained after proliferation in absence of inhibitors as 100% (% CPM>80=−−/50<% CPM<80=−/20<% CPM <50=+/5<% CPM<20=+/%-CPM<5=++). All experiments were done in triplicate.

[2] = molecular target: T2, c-kit carrying the 814 mutation (Mus musculus, UniProt P05532, D818V); experiment: Proliferation test, IC2 D814V cells; type: cell-based, murine; conditions: doses inferior to toxicity level (<10 μM)
T2 construct: expressed in transfected cells; host or cells: IC2 murine mast cell line
T2 sequence (P05532 25-975 isoform P05532-2 D814V limits assumed): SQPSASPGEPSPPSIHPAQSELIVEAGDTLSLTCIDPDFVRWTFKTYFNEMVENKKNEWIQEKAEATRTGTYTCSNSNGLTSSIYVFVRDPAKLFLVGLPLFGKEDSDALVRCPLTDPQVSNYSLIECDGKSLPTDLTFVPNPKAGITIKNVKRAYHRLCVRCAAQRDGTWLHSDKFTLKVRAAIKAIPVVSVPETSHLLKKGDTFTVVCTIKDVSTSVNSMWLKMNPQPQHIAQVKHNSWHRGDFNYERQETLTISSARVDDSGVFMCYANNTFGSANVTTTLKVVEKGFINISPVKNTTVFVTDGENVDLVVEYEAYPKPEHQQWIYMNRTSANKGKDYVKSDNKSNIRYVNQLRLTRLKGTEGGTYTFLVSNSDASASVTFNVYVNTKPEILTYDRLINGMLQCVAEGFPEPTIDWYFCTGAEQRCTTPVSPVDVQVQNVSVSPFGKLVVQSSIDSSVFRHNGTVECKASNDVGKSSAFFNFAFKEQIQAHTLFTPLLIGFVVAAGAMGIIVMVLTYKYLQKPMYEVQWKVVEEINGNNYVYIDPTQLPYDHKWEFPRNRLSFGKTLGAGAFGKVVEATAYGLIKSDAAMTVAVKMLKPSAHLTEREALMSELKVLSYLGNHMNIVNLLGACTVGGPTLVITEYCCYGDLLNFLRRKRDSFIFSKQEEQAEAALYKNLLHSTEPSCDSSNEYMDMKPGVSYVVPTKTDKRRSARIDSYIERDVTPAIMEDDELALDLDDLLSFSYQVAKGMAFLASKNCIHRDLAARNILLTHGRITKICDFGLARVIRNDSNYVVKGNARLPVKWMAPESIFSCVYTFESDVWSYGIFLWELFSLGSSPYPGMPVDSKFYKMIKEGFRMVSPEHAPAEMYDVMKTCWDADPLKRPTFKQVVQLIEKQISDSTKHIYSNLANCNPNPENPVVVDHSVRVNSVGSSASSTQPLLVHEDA
Procedure: We have tested 37 compounds that are indolinone derivatives in different cell lines and successive screening to select interesting inhibitors. • Method: select the compounds which are effectively c-kit inhibitors (Table 1) Each compound has been tested at a high dose (10 μM) on cell expressing • c-kit carrying the 814 mutation • SCF activated c-kit wild • control cells cultivated in IL-3.
The effect of the 21 inhibitors has been tested at decreasing concentrations (10-10^−1-10^−2 μM) in order to reveal compounds that are able at 1 μM to inhibit proliferation of the IC2 D814V line while preserving response to another stimulus (IL-3, toxicity control).
The nine compounds selected have been tested at narrower doses: between 0.1 and 1 μM. At this stage, the three most efficient compounds at lower doses have been selected (≦0.6 μM): 11, 14 and 35.
as §4

[3] = molecular target: T3, FMA3 (deletion 7aa. juxtamembrane) (Mus musculus, UniProt P05532, DEL577-583); experiment: Proliferation test, FMA3 cells; type: cell-based; conditions: doses inferior to toxicity level (<10 μM)
T3 construct: endogenous in cells; host or cells: FMA3 mouse mastocytoma cells
T3 sequence (P05532 with tags, fused parts or gaps isoform P05532-2 DEL573-579): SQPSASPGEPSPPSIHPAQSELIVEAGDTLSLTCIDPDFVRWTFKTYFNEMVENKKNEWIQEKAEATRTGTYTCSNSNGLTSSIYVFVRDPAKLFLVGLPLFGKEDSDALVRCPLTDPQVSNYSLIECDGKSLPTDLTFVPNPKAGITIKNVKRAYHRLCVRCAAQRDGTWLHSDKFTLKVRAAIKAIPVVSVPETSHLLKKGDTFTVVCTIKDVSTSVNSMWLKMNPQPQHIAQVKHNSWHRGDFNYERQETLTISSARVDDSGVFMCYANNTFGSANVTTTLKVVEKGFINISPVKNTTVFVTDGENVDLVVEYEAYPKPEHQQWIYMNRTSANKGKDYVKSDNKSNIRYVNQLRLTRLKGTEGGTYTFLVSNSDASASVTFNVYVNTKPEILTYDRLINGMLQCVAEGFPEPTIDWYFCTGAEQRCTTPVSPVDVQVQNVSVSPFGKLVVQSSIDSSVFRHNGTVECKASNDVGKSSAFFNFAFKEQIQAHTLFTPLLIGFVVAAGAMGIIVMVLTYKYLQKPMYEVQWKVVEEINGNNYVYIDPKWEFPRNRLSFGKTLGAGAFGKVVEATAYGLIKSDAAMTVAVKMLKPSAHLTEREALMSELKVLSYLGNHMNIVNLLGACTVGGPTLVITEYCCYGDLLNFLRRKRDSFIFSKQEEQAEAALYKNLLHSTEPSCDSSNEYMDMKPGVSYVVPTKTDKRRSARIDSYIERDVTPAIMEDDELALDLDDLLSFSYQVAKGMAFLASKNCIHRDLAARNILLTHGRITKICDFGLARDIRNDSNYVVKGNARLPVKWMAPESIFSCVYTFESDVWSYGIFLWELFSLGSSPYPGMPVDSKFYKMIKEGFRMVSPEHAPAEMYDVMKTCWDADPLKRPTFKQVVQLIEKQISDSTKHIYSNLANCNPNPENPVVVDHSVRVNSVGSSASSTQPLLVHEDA
Source text: as §3

c-kit wild = c-kit wild (Mus musculus, UniProt P05532); experiment: c-kit phosphorylation after immunoprecipitation, c-kit wild; type: cell-based
c-kit wild, sequence (P05532 25-975 isoform P05532-2 limits assumed): as the sequence (P05532 25-975 isoform P05532-2 D814V limits assumed) above, with V790D counted along it
Procedure: as §1
(§5) The first step of c-kit activation consists of receptor phosphorylation on tyrosine residues. Thus, the phosphorylation state is a measure of receptor activation. By using specific antibodies, c-kit has been isolated by immunoprecipitation and c-kit phosphorylation has been determined using common procedures.

[4] = tested on: c-kit bearing juxtamembrane mutations; experiment: c-kit phosphorylation after immunoprecipitation, juxtamembrane mutants; type: cell-based
c-kit bearing juxtamembrane mutations, sequence (P05532 592-939 limits assumed, change not shown): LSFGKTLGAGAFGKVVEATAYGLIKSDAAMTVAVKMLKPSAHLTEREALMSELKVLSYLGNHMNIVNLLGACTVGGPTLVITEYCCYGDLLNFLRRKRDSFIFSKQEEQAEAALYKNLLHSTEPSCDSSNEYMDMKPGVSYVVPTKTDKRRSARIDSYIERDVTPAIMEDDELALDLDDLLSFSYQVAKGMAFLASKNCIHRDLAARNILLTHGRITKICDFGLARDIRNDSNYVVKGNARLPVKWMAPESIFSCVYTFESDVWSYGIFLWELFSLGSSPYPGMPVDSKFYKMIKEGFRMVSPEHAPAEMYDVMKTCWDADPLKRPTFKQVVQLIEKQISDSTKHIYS
Procedure: as §1, §5

814 mutant c-kit = experiment: c-kit phosphorylation after immunoprecipitation, 814 mutant; type: cell-based
Procedure: as §1, §5

[5] = tested on: mutant in a human mast cell leukemia cell line (HMC-1, expressing a juxtamembrane mutation); conditions: cited from earlier work

T1 sequence (P05532 25-975 isoform P05532-2 limits assumed): as the sequence (P05532 25-975 isoform P05532-2 D814V limits assumed) above, with V790D counted along it

Substance: STI 571
- Effect on proliferation depending on c-kit wild (SCF activated c-kit wild): inhibits totally the proliferation
- Effect on proliferation, juxtamembrane mutation Δ27 [1]: inhibits totally the proliferation
- Effect on proliferation of cells carrying 814 mutation, IC2 [2]: not the proliferation of cells carrying 814 mutation
- Effect on proliferation, juxtamembrane mutation FMA3 [3]: inhibits totally the proliferation
- Phosphorylation of c-kit wild (c-kit wild): considerably reduces the phosphorylation
- Phosphorylation of c-kit bearing juxtamembrane mutations [4]: considerably reduces the phosphorylation
- Phosphorylation of the 814 mutant c-kit (814 mutant c-kit): is not reduced
- Inhibitory effect on kinase activity of HMC-1 mutant compared with ligand-dependent activation of the wild-type receptor [5]: more potent inhibitory effect

From patent publication US7727731B2, “Potent, selective and non toxic c-kit inhibitors” (AB Science, priority 2001, dated 2010)
